Source: patent publication US20060040338A1, “Pharmacological profiling of drugs with cell-based assays” (Odyssey Thera, Inc., priority 2004, published 2006)
Entries after “also recorded” stand apart in the source; their conditions may differ.

Columns and labels:
Type in all cases: cell-based, human
[1] = tested on: phospho-ERK; assay: phospho-ERK (T202/Y204) immunofluorescence high-content assay; conditions: HEK293T cells; for effect on EGF-stimulated ERK phosphorylation: drug 90 min (PD98059 20 micromolar, SB203580 25 micromolar, 17-AAG 5 microM), 100 ng/ml hEGF during last 5 min; for ERK/MAP kinase phosphorylation, agent alone: isoproterenol 2 micromolar or forskolin 1 micromolar 15 min, anisomycin 10 micrograms/ml 10 min, hEGF 100 ng/ml 5 min
Procedure: (§1) We assessed the effects of the above-mentioned compounds on the three pathways and used the results to construct pharmacological profiles for the agents. Specifically we assessed changes in the phosphorylation status of the pathway ‘sentinels’ by constructing high-content, immunofluorescence assays using phospho-specific antibodies targeted to the downstream proteins in the pathways of interest. Human cells (HEK293) were treated with drugs and the phosphorylation status of the three downstream proteins was assessed in the absence or presence of epidermal growth factor (EGF). Cells were then fixed and probed with antisera generated against the phosphorylated forms of CREB (S133), ERK1/2 (phospho T*EY*), or phospho Hsp27 (S78/S82). The ERK1/2 antibodies specifically recognize the MAPK/ERK1 and MAPK/ERK2 protein kinases only when they are phosphorylated on Threonine 202 and Tyrosine 204 in the activation loop. […] Changes in the level and sub-cellular localization of a phosphorylated protein following treatment with a drug would indicate a functional connection between the drug and the pathway of interest.
(§2) Details of the methods used are as follows. HEK293T cells were seeded in black-walled, poly-lysine coated 96-well plates (Greiner) at a density of 30,000/well. After 24 hours, cells in duplicate wells were treated with combinations of different drugs and stimulus as follows: (a) 2 micromolar isoproterenol or 1 micromolar forskolin for 15 min.; (b) 25 micromolar SB203580 or vehicle (DMSO) for 90 minutes and 10 micrograms/ml anisomycin added to the cells during the last 10 min.; (c) 20 microolar PD98059, 25 micromolar SB203580, 5 microM 17-AAG or vehicle alone for 90 min. (d) as for (c), but with 100 ng/ml hEGF added to the cells during the last 5 min of drug treatment. The drugs were purchased from Calbiochem and hEGF was from Roche. Four sets of cells treated as described were prepared. The cells were rinsed once with PBS and fixed with 4% formaldehyde for 10 min. The cells were subsequently permeabilized with 0.25% Triton X-100 in PBS and incubated with 3% BSA for 30 min to block non-specific antibody binding. Each of the 4 sets of identically treated cells were then incubated with rabbit antibodies against phosphorylated CREB (Ser133), Hsp27 (Ser82), or pERK (T202/Y204) (Cell Signaling Technology, Inc.). Control wells were incubated with bovine serum albumin (BSA) in PBS. The cells were rinsed with PBS and incubated with Alexa488 conjugated goat anti-rabbit secondary antibody (Molecular Probes). Cell nuclei were stained with Hoechst33342 (Molecular Probes).
(§3) Images were acquired using Discovery-1 High Content Imaging System (Molecular Devices). Background fluorescence due to nonspecific binding by the secondary antibody was established with the use of cells that were incubated with BSA/PBS and without primary antibodies.
(§4) Raw images in 16-bit grayscale TIFF format were analyzed using ImageJ API/library (http://rsb.info.nih.gov/ij/, NIH, MD). First, images from the fluorescence channels (Hoechst and Alexa 488) were normalized using the ImageJ built-in rolling-ball algorithm [S. R. Sternberg, Biomedical image processing. Computer, 16(1), January 1983]. Next a threshold was established to separate the foreground from background. An iterative algorithm based on Particle Analyzer from ImageJ is applied to the thresholded Hoechst channel image (HI) to obtain the total cell count. The nuclear region of a cell (nuclear mask) is also derived from the thresholded HI. The positive particle mask is generated from the thresholded Alexa 488 image (YI). To calculate the global background (gBG), a histogram was obtained from the un-thresholded Alexa signal and the pixel intensity of the lowest intensity peak was identified as gBG. The Hoechst mask and Alexa mask are overlapped to define the correlated sub-regions of the cell. All means were corrected for the corresponding gBG. […]

[2] = tested on: phospho-CREB; assay: phospho-CREB (S133) immunofluorescence high-content assay; conditions: HEK293T cells; for phosphorylation of CREB (phospho-CREB intensity), agent alone / subcellular distribution of phospho-CREB: isoproterenol 2 micromolar or forskolin 1 micromolar 15 min, anisomycin 10 micrograms/ml 10 min, relative to untreated control; for phosphorylation of CREB (phospho-CREB intensity), agent alone: hEGF 100 ng/ml 5 min
Procedure: as §1, §2, §3, §4

[3] = tested on: phospho-Hsp27; assay: phospho-Hsp27 immunofluorescence high-content assay; conditions: HEK293T cells; for effect on EGF-induced Hsp27 phosphorylation: drug 90 min (PD98059 20 micromolar, SB203580 25 micromolar), 100 ng/ml hEGF during last 5 min; for Hsp27 phosphorylation (p38 pathway), agent alone: anisomycin 10 micrograms/ml 10 min, hEGF 100 ng/ml 5 min
Procedure: as §1, §2, §3
Raw images in 16-bit grayscale TIFF format were analyzed using ImageJ API/library (http://rsb.info.nih.gov/ij/, NIH, MD). First, images from the fluorescence channels (Hoechst and Alexa 488) were normalized using the ImageJ built-in rolling-ball algorithm [S. R. Sternberg, Biomedical image processing. Computer, 16(1), January 1983]. Next a threshold was established to separate the foreground from background. An iterative algorithm based on Particle Analyzer from ImageJ is applied to the thresholded Hoechst channel image (HI) to obtain the total cell count. The nuclear region of a cell (nuclear mask) is also derived from the thresholded HI. […]

ERK/MAP kinase phosphorylation, agent alone [1] | Compound | effect on EGF-stimulated ERK phosphorylation [1] | effect on EGF-induced phospho-CREB ([2]; drug 90 min (PD98059 20 micromolar), 100 ng/ml hEGF during last 5 min) | effect on EGF-induced Hsp27 phosphorylation [3] | effect on anisomycin-induced phospho-Hsp27 ([3]; SB203580 25 micromolar 90 min, 10 micrograms/ml anisomycin during last 10 min) | phosphorylation of CREB (phospho-CREB intensity), agent alone [2] | subcellular distribution of phospho-CREB [2] | Hsp27 phosphorylation (p38 pathway), agent alone [3]
– | C=CCNC1=C2C[C@@H](C)C[C@H](OC)[C@H](O)[C@@H](C)/C=C(\C)[C@H](OC(N)=O)[C@@H](OC)/C=C\C=C(/C)C(=O)NC(=CC1=O)C2=O [17-AAG, 17-allylamino-17-demethoxygeldanamycin] | effective at reducing | – | – | – | – | – | –
– | COc1cccc(-c2cc(=O)c3ccccc3o2)c1N [PD98059] | significantly blocked | reduced | no effect | – | – | – | –
– | C[S+]([O-])c1ccc(-c2nc(-c3ccc(F)cc3)c(-c3ccncc3)[nH]2)cc1 (centres unmarked) [SB203580, 4-(4-fluorophenyl)-2-(4-methylsulfinylphenyl)-5-(4-pyridyl)1H-imidazole] | no effect | – | blocked | completely blocked | – | – | –
no effects | CC(C)NCC(O)c1ccc(O)c(O)c1 (centres unmarked) [isoproterenol] | – | – | – | – | increased | predominantly nuclear pattern | –
strongly stimulated | EGF: epidermal growth factor; hEGF from Roche, used as pathway stimulus | – | – | – | – | induced | – | elicited p38 pathway activation

Compound | ERK/MAP kinase phosphorylation, agent alone [1] | effect on EGF-stimulated ERK phosphorylation [1] | effect on EGF-induced phospho-CREB ([2]; drug 90 min (PD98059 20 micromolar), 100 ng/ml hEGF during last 5 min) | effect on EGF-induced Hsp27 phosphorylation [3] | effect on anisomycin-induced phospho-Hsp27 ([3]; SB203580 25 micromolar 90 min, 10 micrograms/ml anisomycin during last 10 min) | phosphorylation of CREB (phospho-CREB intensity), agent alone [2] | subcellular distribution of phospho-CREB [2] | Hsp27 phosphorylation (p38 pathway), agent alone [3]
COc1ccc(C[C@H]2NC[C@H](O)[C@H]2OC(C)=O)cc1 [anisomycin] | no effect | – | – | – | – | little or no effect; also recorded: no effect | little or no effect | induced
